Series [1] concerns Rattus norvegicus. As to the kind of experiment: Metabolic stability in Wistar rat assessed as 2-Chloro-5-(7-chloro-quinolin-4-ylamino)-benzoic acid level at 54 umol/kg, iv administered as [3H]labeled drug after 5 hrs. The class given is ADME, organism-based. To be noted: in vivo.
In series [2] the test system is Rattus norvegicus. The series is described as follows: Metabolic stability in Wistar rat assessed as [3-(tert-Butylamino-methyl)-4-chloro-phenyl]-(7-chloro-1-oxy-quinolin-4-yl)-amine level at 54 umol/kg, iv administered as [3H]labeled drug after 5 hrs. Format: ADME, organism-based. The conditions noted are these: in vivo.
Series [3] has as its system Liver. The series is described as follows: Biodistribution in cannulated Wistar rat liver assessed as [3H]labeled drug level at 54 umol/kg, iv after 5 hrs. Format: ADME, organism-based. The conditions noted are these: in vivo.
Series [4] has as its system Kidney. As to the kind of experiment: Biodistribution in Wistar rat kidney assessed as [3H]labeled drug level at 54 umol/kg, iv after 24 hrs. Format: ADME, organism-based. The conditions noted are these: in vivo.
The nature of series [5]: Toxicity against Wistar rat hepatocytes after 6 hrs by trypan blue exclusion method. Format: cell-based, Hepatocyte. The conditions noted are these: read-out: TC50.
The next series concerns Plasmodium berghei. The series is described as follows: Antimalarial activity as reduced parasitaemia against Plasmodium berghei ANKA infected CD1 mice (Mus musculus) perorally dosed daily over 4 days. Format: functional. To be noted: po, 96 h.
The next series deals with Lung. As to the kind of experiment: Biodistribution in Wistar rat lung assessed as [3H]labeled drug level at 54 umol/kg, iv after 24 hrs. The class given is ADME, organism-based. The conditions noted are these: in vivo.
The subject of series [6] is Plasmodium falciparum. As to the kind of experiment: Antimalarial activity against chloroquine-resistant Plasmodium falciparum TM6. Format: functional, organism-based.
Series [7] relates to Kidney. The series is described as follows: Biodistribution in cannulated Wistar rat kidney assessed as [3H]labeled drug level at 54 umol/kg, iv after 5 hrs. Format: ADME, organism-based. To be noted: in vivo.
The subject of series [8] is Plasmodium falciparum. As to the kind of experiment: Antimalarial activity against chloroquine-sensitive Plasmodium falciparum HB3. Format: functional, organism-based.
Series [9] in a line: Distribution coefficient, log D at pH 7.4. The conditions noted are these: octanol/water.
In series [10] the test system is Rattus norvegicus. As to the kind of experiment: Drug elimination in Wistar rat assessed as [3H]labeled drug level at 54 umol/kg, iv after 24 hrs. Format: ADME, organism-based. The conditions noted are these: in vivo.
Series [11] deals with Rattus norvegicus. As to the kind of experiment: Metabolic stability in Wistar rat assessed as 2-[2-Chloro-5-(7-chloro-quinolin-4-ylamino)-benzylamino]-2-methyl-propionic acid level at 54 umol/kg, iv administered as [3H]labeled drug after 5 hrs. The class given is ADME, organism-based. The conditions noted are these: in vivo.
Series [12] has as its system Liver. The series is described as follows: Biodistribution in Wistar rat liver assessed as [3H]labeled drug level at 54 umol/kg, iv after 24 hrs. Format: ADME, organism-based. The conditions noted are these: in vivo.
Series [13] can be described thus: Partition coefficient, log P of the compound. Format: physicochemical. The conditions noted are these: octanol/water.
Series [14] concerns the target β-hematin formation (no protein target). As to the kind of experiment: Inhibition of beta-hematin formation as molar equivalent relative to hemin causing blockade in BHIA.
Series [15] in a line: Therapeutic index, ratio of IC50 for Wistar rat hepatocytes to IC50 for Plasmodium falciparum HB3. Format: cell-based, Hepatocyte.
Series [16] in a line: Drug metabolism in cannulated Wistar rat assessed as biliary excretion of [3H]labeled drug level at 54 umol/kg, iv after 5 hrs. The class given is ADME, organism-based, Bile. The conditions noted are these: in vivo.
The nature of series [17]: Biodistribution in cannulated Wistar rat bile assessed as [3H]labeled drug level at 54 umol/kg, iv after 5 hrs. The class given is ADME, organism-based. The conditions noted are these: in vivo.
For series [18], the system named is Plasmodium falciparum. The series is described as follows: Antimalarial activity against chloroquine-sensitive Plasmodium falciparum 3D7. Format: functional, organism-based.

What is called ED50 is the midpoint of the dose-response relation. Low values mean an effect at a small dose, high ones a need for a large dose. A word on the logD: it is the decadic logarithm of the distribution of all forms, ionised or not, between an organic phase and buffer at a given pH. Lower therefore signals lower lipophilicity. For orientation: logP means the decadic logarithm of the partition coefficient of the neutral form, usually between octanol and water. Higher therefore signals higher lipophilicity.

As for `CC(C)(C)NCc1cc(Nc2ccnc3cc(Cl)ccc23)ccc1Cl`, the Activity amounted to 11.39% in the series with Rattus norvegicus [1]; 4.52% in the series with Rattus norvegicus [2]; 61% in the series with Rattus norvegicus [10]; 60.76% with Rattus norvegicus [11]; 14.88% in [16]; 14.9% in series [17]. Moreover, the Drug uptake came to 12.41% in the series with Liver [3]; 0.31 %ID in the series on Kidney [4]; 0.25 %ID in the series on Lung; 5.43 %ID in the series on Kidney [7]; 1.87 %ID in the series on Liver [12]. The CC50 at 6 h in series [5] is 120000 nM. In the series with Plasmodium berghei, this compound yielded an ED50 of 13.4 mg/kg. This compound also had an ED90 in the series with Plasmodium berghei of 27.3 mg/kg. The IC50 with Plasmodium falciparum [6] came to 4.5 nM; in the series on Plasmodium falciparum [8], 8.1 nM; in series [14], 1.66 molar ratio; with Plasmodium falciparum [18], 7.8 nM. The logD in [9] is 3. Further, in [13], the logP was 5.59. Besides, the selectivity ratio in [15] is 11900.

The record behind these values is ChEMBL document CHEMBL1153384, “Synthesis, antimalarial activity, and preclinical pharmacology of a novel series of 4'-fluoro and 4'-chloro analogues of amodiaquine. Identification of a suitable "back-up" compound for N-tert-butyl isoquine” (J Med Chem, 2009).
